Experimental data: patent US20230181482A1, “LIPIDS FOR DELIVERY OF NUCLEIC ACID SEGMENTS” (AstraZeneca AB, priority 2021, published 2023)

Tests used:
[1] = mRNA encapsulation efficiency of LNP formulations (Quant-it Ribogreen assay with Triton-X100); format: physicochemical; conditions: DMPE-PEG2000
How it was run: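 LNPs of ionizable lipid/cholesterol/DSPC/polymer-lipid (50/38.5/10/1.5 mol%, 12.5 mM total lipid) formed by microfluidic mixing with eGFP mRNA in 50 mM citrate, pH 3, at 3:1 aqueous:ethanol and N/P 3:1 or 6:1. Encapsulation efficiency measured by RiboGreen with and without Triton-X100 disruption.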

[2] = LNP particle size by dynamic light scattering (Zetasizer Nano ZS); format: physicochemical; conditions: DMPE-PEG2000
How it was run: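 eGFP mRNA in 50 mM citrate (from pH 3 buffer) was mixed microfluidically (Aq:EtOH 3:1, 12 mL/min) with ethanolic lipids, ionizable lipid/cholesterol/DSPC/polymer-conjugated lipid 50/38.5/10/1.5 mol %, 12.5 mM total, at N/P 3:1 or 6:1. Dynamic light scattering gave z-average diameter. Number-weighted distributions used refractive index 1.45.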

[3] = tested on: human broncho-epithelial cell line 16HBE; test: In vitro expression of eGFP in 16HBE cells (GFP ELISA); format: cell-based; conditions: for eGFP in 16HBE: LNP formulation nos. 1 and 7 (N/P 3:1), 24 h, 125 ng mRNA per well, (standard error of the mean); for Ratio Lipid/MC3: ratio of eGFP expression in 16HBE to the MC3 formulation
Description: In vitro expression of EGFP protein from LNP formulation nos. 1 and 7 described in Example 58 was tested in the human broncho-epithelial cell line 16HBE (Sigma-Aldrich SCC150. 16HBE cells were maintained in DMEM, low glucose with GlutaMAX™+pyruvate (Gibco 21885-025) supplemented with MEM Non-Essential Amino Acids (Gibco 11140035) and 10% Heat-Inactivated Fetal Calf Serum (HI-FCS). The cells were cultured at 37° C. in a humidified atmosphere with 5% CO2. The day prior to an experiment, cells were detached from culture flasks using TrypLE™ (Gibco 12604013) and seeded in cell culture treated 96-well plates (Greiner Bio-One #655090) at a density of 20.000 cells per well. At the day of an experiment, 1 hour before incubation with LNPs, medium was removed and replaced with 95 ul DMEM including 1% HI-FCS. After 1 hour of conditioning, 5 ul of LNPs in PBS was added and mixed by a Bravo robot, resulting in a final concentration of 50-125 ng mRNA per well. Cells were then incubated for 24 h at 37° C. in a humidified atmosphere with 5% CO2. Absolute quantification of EGFP protein was done using ELISA (GFP SimpleStep ELISA kit, Abcam #ab171581). After 24 h of incubation, cells were lysed by adding 100 ul of lysis buffer to each well (Lysis buffer included in the kit, or Abcam products #ab193970 and #ab193971) Cells were then lysed by a freeze-thaw cycle in lysis buffer. Lysates were measured in appropriate dilutions according to the kit manufacturer's instructions. Results are reported as number of EGFP molecules expressed per mRNA dosed, after 24 h, calculated from the values of 125 ng mRNA per well. Results are plotted as Mean+SEM from triplicate values.
The expression of eGFP in 16HBE cytosol proves the function of the used LNP composition of eGFP mRNA in promoting gene transfection and […]. The quantification of eGFP allows to compare different LNP compositions with the MC3-based lipid composition, used as a comparator, with regard to the induction of protein expression in 16HBE to obtain the ratio of lipid to MC3. In this application, the LNP compositions differ in their ionizable lipid (IL) component. […] (see FIG. 1).

[4] = tested on: Female BALB/c mice; test: eGFP expression in the liver at 24 hours after intravenous administration of LNP formulations to mouse (ELISA); format: in vivo; conditions: LNP N/P 3:1, DMPE-PEG2000
How it was run: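 Mice (6-8 weeks, n=4/group) received a slow IV tail-vein bolus of LNP formulation at 0.3 mg/kg. Livers were harvested 24 hours post-dose and eGFP quantified by ELISA.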

[5] = Table 1, LNP with eGFP mRNA, N/P ratio 3:1
[6] = Table 1, number-average particle diameter, N/P ratio 3:1
[7] = Table 1, z-average particle diameter, N/P ratio 3:1

Compound | % EE [1, 5] [%] | <d>N (nm) [2, 6] [nm] | <d>Z (nm) [2, 7] [nm] | eGFP in 16HBE [3] | Ratio Lipid/MC3 [3] | % EE ([1]; Table 6, N/P ratio 3:1) [%] | <d>N (nm) ([2]; Table 6, N/P ratio 3:1) | <d>Z (nm) ([2]; Table 6, N/P ratio 3:1) | Liver eGFP protein (ng/g tissue) ([4]; Table 6, 0.3 mg/kg) | other results
CCCCCC(CCCCC)CCOC(=O)CCCCCCCC(CCCCCCCC(=O)OCCC(CCCCC)CCCCC)NC1CC2(COC2)C1 [Compound 1, Bis(3-pentyloctyl) 9-((2-oxaspiro[3.3]heptan-6-yl)amino)heptadecanedioate] | 97 | 68 | 84 | 0.044 (±0.004) number of protein molecules per number of dosed mRNA molecules | 1.9 | – | – | – | – | % EE ([1]; Table 1, LNP with eGFP mRNA, N/P ratio 6:1): 94%; <d>N (nm) ([2]; Table 1, number-average particle diameter, N/P ratio 6:1): 57 nm; <d>Z (nm) ([2]; Table 1, z-average particle diameter, N/P ratio 6:1): 74 nm
CCCCCCCCCCC(C)OC(=O)CCCCCC(CCCCCCCC(=O)OC(CCCCCCCC)CCCCCCCC)NC1CC2(COC2)C1 (stereo not drawn) [Compound 56, 1-(dodecan-2-yl) 15-(heptadecan-9-yl) 7-((2-oxaspiro[3.3]heptan-6-yl)amino)pentadecanedioate] | – | – | – | – | – | 96 | 58 | 73 | 10270.4 | –
CCCCC/C=C\C/C=C\CCCCCCCCC(CCCCCCCC/C=C\C/C=C\CCCCC)OC(=O)CCCN(C)C [MC3, [(10Z,13Z)-1-[(9Z,12Z)-octadeca-9,12-dienyl]nonadeca-10,13-dienyl] 4-(dimethylamino)butanoate, reference compound] | 99 | 72 | 86 | 0.023 (±0.001) number of protein molecules per number of dosed mRNA molecules | 1 | 98 | 61 | 74 | 3802.0 | % EE ([1]; Table 3, N/P ratio 3:1): 98%; % EE ([1]; Table 4, N/P ratio 3:1): 98%; % EE ([1]; Table 5, N/P ratio 3:1): 98%; <d>N (nm) ([2]; Table 3, N/P ratio 3:1): 63 nm; <d>Z (nm) ([2]; Table 3, N/P ratio 3:1): 79 nm; <d>N (nm) ([2]; Table 4, N/P ratio 3:1): 71 nm; <d>Z (nm) ([2]; Table 4, N/P ratio 3:1): 88 nm; <d>N (nm) ([2]; Table 5, N/P ratio 3:1): 66 nm; <d>Z (nm) ([2]; Table 5, N/P ratio 3:1): 82 nm; Liver eGFP protein (ng/g tissue) ([4]; Table 3, 0.3 mg/kg): 3091.5 ng/g tissue; Liver eGFP protein (ng/g tissue) ([4]; Table 4, 0.3 mg/kg): 916.4 ng/g tissue; Liver eGFP protein (ng/g tissue) ([4]; Table 5, 0.3 mg/kg): 1114.4 ng/g tissue
